Paper PMC9322761, “Design, Synthesis and Biological Characterization of Histone Deacetylase 8 (HDAC8) Proteolysis Targeting Chimeras (PROTACs) with Anti-Neuroblastoma Activity” (International Journal of Molecular Sciences, 2022)
Where two headings read alike, the source gives them in different places.

Tests used:
HDAC8 [1] = target: T1, HDAC8 (Homo sapiens, UniProt Q9BY41); assay: In vitro HDAC8 activity assay (Fluor de Lys-HDAC8); assay type: biochemical; parameters: made in house; conditions: for SI (HDAC6/HDAC8): selectivity index, HDAC6 over HDAC8
T1 sequence (Q9BY41 1-377): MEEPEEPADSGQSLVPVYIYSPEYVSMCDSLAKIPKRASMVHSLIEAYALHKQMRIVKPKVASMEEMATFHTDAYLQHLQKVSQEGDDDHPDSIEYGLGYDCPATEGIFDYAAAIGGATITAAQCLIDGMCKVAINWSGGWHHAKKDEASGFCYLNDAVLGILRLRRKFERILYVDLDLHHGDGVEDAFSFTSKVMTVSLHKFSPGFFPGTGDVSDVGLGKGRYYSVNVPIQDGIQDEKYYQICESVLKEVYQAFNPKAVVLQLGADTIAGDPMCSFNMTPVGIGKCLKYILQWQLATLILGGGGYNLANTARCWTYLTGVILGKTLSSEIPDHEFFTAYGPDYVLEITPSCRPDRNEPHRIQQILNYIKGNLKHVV
Description: Recombinant hHDAC8 was produced by Romier et al. in Strasbourg. The HDAC8 activity assays were performed according to the commercial HDAC8 Fluorometric Drug Discovery Kit (Fluor de Lys(R)-HDAC8, BML-KI178) corresponding to the instructions of the manufacturer. As substrate a tetrapeptide connected to aminomethylcoumarin (AMC) H2N-Arg- His-Lys(Ac)-Lys(Ac)-AMC was synthesized as previously described. The enzyme was incubated for 90 min at 37 °C, with a substrate concentration of 50 µM and increasing concentrations of inhibitors. The stop-solution-containing inhibitor was added to stop the hHDAC8 activity, and Trypsin was added to release the AMC. The solution was incubated for 20 min at 37 °C to develop the assay.
(§1) Inhibition was measured at increasing concentration and IC50 was calculated by nonlinear regression with Origin 9.0G software.

HDAC1 = HDAC1 (Homo sapiens, UniProt Q13547); assay: In vitro HDAC inhibitory activity assay, recombinant HDAC1 (fluorogenic substrate ZMAL); assay type: biochemical; parameters: purchased BPS Biosciences; conditions: for inhibition at 1 µM / inhibition at 10 µM: read-out: HDAC1 % inhib. at given conc.
Description: (§2) The in vitro testing on recombinant HDACs was performed as previously described. Recombinant human HDAC1 and −6 were purchased from BPS Biosciences. The enzyme inhibition was determined by using a reported homogenous fluorescence assay. […] Fluorescence intensity was measured at an excitation wavelength of 390 nm and an emission wavelength of 460 nm in a microtiter plate reader (BMG Polarstar).
as §1

HDAC6 = target: T2, HDAC6 (Homo sapiens, UniProt Q9UBN7); assay: In vitro HDAC inhibitory activity assay, recombinant HDAC6 (fluorogenic substrate ZMAL); assay type: biochemical; parameters: purchased BPS Biosciences; conditions: for inhibition at 1 µM / inhibition at 10 µM: read-out: HDAC6 % inhib. at given conc.
T2 sequence (Q9UBN7 1-1215): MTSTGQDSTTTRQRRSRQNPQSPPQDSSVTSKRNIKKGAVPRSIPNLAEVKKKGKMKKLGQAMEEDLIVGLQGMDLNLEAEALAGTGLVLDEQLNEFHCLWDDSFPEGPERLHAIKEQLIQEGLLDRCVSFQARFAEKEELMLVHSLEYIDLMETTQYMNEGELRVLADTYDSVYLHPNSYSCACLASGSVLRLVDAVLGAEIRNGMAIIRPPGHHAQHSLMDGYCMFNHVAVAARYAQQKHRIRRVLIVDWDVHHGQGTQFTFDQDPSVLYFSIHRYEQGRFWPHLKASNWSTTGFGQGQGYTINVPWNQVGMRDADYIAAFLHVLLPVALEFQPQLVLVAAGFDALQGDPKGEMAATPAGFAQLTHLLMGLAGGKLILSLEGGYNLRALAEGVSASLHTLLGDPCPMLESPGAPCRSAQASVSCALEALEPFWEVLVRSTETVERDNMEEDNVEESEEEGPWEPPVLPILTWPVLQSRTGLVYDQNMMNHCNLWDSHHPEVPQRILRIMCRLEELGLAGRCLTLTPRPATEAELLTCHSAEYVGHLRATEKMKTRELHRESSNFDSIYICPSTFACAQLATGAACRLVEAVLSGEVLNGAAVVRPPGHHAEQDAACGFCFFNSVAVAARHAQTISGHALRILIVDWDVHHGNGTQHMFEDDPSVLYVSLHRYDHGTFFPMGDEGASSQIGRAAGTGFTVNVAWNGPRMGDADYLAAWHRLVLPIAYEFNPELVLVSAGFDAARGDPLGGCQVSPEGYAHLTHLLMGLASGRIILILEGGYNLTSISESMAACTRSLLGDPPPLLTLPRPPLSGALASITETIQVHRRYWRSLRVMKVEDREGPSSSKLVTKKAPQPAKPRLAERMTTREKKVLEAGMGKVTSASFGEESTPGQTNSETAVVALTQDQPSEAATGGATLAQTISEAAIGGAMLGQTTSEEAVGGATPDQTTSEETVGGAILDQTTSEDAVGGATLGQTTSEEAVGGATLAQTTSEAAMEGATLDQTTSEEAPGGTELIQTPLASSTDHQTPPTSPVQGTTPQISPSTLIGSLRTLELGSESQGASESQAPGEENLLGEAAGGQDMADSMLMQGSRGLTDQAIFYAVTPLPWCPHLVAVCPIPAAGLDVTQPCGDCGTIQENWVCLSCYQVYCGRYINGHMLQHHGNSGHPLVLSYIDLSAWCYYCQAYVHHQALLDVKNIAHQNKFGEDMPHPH
Description: as §2, §1

SK-N-BE(2)-C cells = assay: Colony formation assay in neuroblastoma cells; assay type: cell-based, human; conditions: 5 and 10 μM, treatment 96 h, then 6 days without treatment
Description: In order to measure the functional consequence of HDAC8 inhibition, two different cell lines were used: SK-N-BE(2)-C cells, which display MYCN amplification and non-functional p53; and IMR-32 cells having p53 wild type, which both respond with growth arrest and signs of neuronal differentiation upon knockdown or selective inhibition of HDAC8. Growth arrest was determined by colony formation and viability assays. Cells were treated with 5 and 10 μM of each of the CRBN_ based HDAC8 PROTACs having a triazole linker (CRBN_1d, CRBN_1e, CRBN_1f) for 96 h, followed by culturing for another 6 days without treatment (Figure 5A). This assesses whether the treatment impairs the clonogenic growth capacity of tumor cells, indicating effectiveness of compounds on the survival and proliferation of tumor cells.
In six-well plates, 500 cells were seeded and treated as indicated. Viable colonies were stained after a minimum of 10 days with crystal violet. For quantification, the mean intensity of each well of the 8-bit binary picture was measured with ImageJ software (U. S. National Institutes of Health, Bethesda, MD, USA; http://imagej.nih.gov/ij/ (accessed on 1 March 2022)).
Figure 5 (A) Neuroblastoma SK-N-BE(2)-C cells; Colony Assay, 10 days (compound treatment within first 96 h). Stained with crystal violet and quantified with ImageJ. (B,C) Trypan Blue assay for detection of dead cells. Neuroblastoma IMR-32 cells were either treated with 5 µM (B) or 10 µM (C). (D,E) Cell proliferation assessed via counting of viable cells. IMR-32 cells were either treated with 5 µM (D) or 10 µM (E) PROTACs. HDAC8i PCI-34501 served as a positive control, untreated (MEM) and solvent (DMSO) treated cells served as negative controls.

HDAC8 [2] = target: T1, HDAC8; assay: HDAC8 degradation in SK-N-BE(2)-C neuroblastoma cells (Western blot); assay type: cell-based; parameters: endogenous in cells; host or cells: SK-N-BE(2)-C; conditions: 24 h; cycloheximide 35 nM, PROTAC 10 μM
Description: Whole cell lysates from treated SK-N-BE(2)-C neuroblastoma cells were taken and the protein levels for HDAC8 and the acetylation of its substrate SMC3 were determined (Figure 6). As a control for HDAC6, we also assessed acetylation levels of α-tubulin. […] Western blot analysis was performed as described previously (Kolbinger et al.).
Figure 6 (A) SK-N-BE(2)-C neuroblastoma cells were treated for indicated time points with 10 µM of PROTACs. Degradation of HDAC8 and acetylation of HDAC8 target was analyzed via Western blot. (B) SK-N-BE(2)-C neuroblastoma cells were treated for 6 h with indicated concentrations of HyT_1p, CRBN_1b and HyT_1m. Acetylation of HDAC8 target SMC3 and HDAC6 target tubulin, as well as total HDAC8 levels, were assessed by Western blot. Quantified ac-SMC3 or ac-tubulin expression, respectively, was normalized to the respective tubulin loading control and to the solvent control (DMSO). This quantification is reflected by the numbers below each blot. […] Total HDAC6, total HDAC1, total HDAC8, and acetyl-histone H4 expression levels, were assessed by Western blot. Total GAPDH protein levels served as a loading control (LC). * unspecific bands obtained through reprobing of the membrane.

[3] = Table 1, PROTACs, read-out: HDAC6 IC50
[4] = Table 2, inhibitors synthesized in this paper (S1)
[5] = Table 2, inhibitors synthesized in this paper (S1), read-out: HDAC1 IC50
[6] = Table 2, inhibitors synthesized in this paper (S1), read-out: HDAC6 IC50

Chain of HDAC1 (Q13547 whole entry): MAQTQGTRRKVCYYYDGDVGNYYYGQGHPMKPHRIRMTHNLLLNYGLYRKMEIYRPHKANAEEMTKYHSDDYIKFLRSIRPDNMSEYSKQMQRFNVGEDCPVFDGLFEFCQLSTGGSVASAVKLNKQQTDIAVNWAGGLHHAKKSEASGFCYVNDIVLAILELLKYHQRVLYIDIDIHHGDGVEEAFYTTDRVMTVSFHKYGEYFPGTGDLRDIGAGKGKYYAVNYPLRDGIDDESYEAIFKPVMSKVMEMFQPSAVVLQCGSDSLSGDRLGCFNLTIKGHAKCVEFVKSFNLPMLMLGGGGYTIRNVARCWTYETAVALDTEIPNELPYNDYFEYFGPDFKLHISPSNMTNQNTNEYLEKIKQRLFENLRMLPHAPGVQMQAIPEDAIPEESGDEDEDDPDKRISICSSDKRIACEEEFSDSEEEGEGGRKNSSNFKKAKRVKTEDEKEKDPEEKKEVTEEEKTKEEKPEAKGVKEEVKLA

| SMILES | IC50 (HDAC8 [1]; Table 1, PROTACs) [nM] | inhibition at 1 µM (HDAC1) [%] | inhibition at 10 µM (HDAC1) [%] | inhibition at 1 µM (HDAC6) [%] | inhibition at 10 µM (HDAC6) [%] | SI (HDAC6/HDAC8) (HDAC8 [1]) | other results |
| --- | --- | --- | --- | --- | --- | --- | --- |
| O=C(COc1ccc(C(=O)Nc2cc(C(=O)NO)ccc2Cl)cc1)NCCCOCCOCCOCCCNc1cccc2c1C(=O)N(C1CCC(=O)NC1=O)C2=O (stereo not shown) [CRBN_1i] | 650 ± 140 | 20.7 | 67.4 | 85.4 | 92.3 |  |  |
| O=C(COc1ccc(CNc2cc(C(=O)NO)ccc2Cl)cc1)NCCCCCNc1cccc2c1C(=O)N(C1CCC(=O)NC1=O)C2=O (stereo not shown) [CRBN_1g] | 590 ± 110 | 10.1 | 69 | 24.8 | 72.6 |  |  |
| O=C1CCC(N2C(=O)c3cccc(NC(=O)CCCCCn4cc(COc5ccc(CNc6cc(C(=O)NO)ccc6Cl)cc5)nn4)c3C2=O)C(=O)N1 (stereo not shown) [CRBN_1f] | 250 ± 30 |  |  |  |  | 5 | Effect on colony formation (SK-N-BE(2)-C cells): inactive; IC50 (HDAC1; Table 1, PROTACs, read-out: HDAC1 IC50): 10800 ± 700 nM; IC50 (HDAC6; [3]): 1300 ± 300 nM |
| COc1ccc(C(=O)NO)cc1NC(=O)c1ccc(CNC(=O)CCCCCCCNc2cccc3c2C(=O)N(C2CCC(=O)NC2=O)C3=O)cc1 (stereo not shown) [CRBN_1c] | 150 ± 10 | 22.2 | 40.1 |  |  | 2 | IC50 (HDAC6): 250 ± 20 nM |
| COc1ccc(C(=O)NO)cc1NC(=O)c1ccc(NC(=O)CCCCCCCNC(=O)CC23CC4CC(CC(C4)C2)C3)cc1 [HyT_1n] | 390 ± 30 | 38.6 | 30 |  |  | 2 | IC50 (HDAC6; [3]): 820 ± 50 nM |
| O=C(COc1ccc(C(=O)Nc2cccc(C(=O)NO)c2)cc1)NCCCOCCOCCOCCCNc1cccc2c1C(=O)N(C1CCC(=O)NC1=O)C2=O (stereo not shown) [CRBN_1j] | 4840 ± 1050 | 13.9 | 60 | 46.2 | 80.9 |  |  |
| Cc1ncsc1-c1ccc(CNC(=O)[C@@H]2C[C@@H](O)CN2C(=O)[C@@H](NC(=O)CCCCCNC(=O)COc2ccc(CNc3cc(C(=O)NO)ccc3Cl)cc2)C(C)(C)C)cc1 [VHL_1l] | 720 ± 150 | 6 | 45.5 | 8.3 | 72.4 |  |  |
| COc1ccc(C(=O)NO)cc1NC(=O)c1ccc(NC(=O)CCCCCNc2cccc3c2C(=O)N(C2CCC(=O)NC2=O)C3=O)cc1 (stereo not shown) [CRBN_1a] | 90 ± 30 |  |  |  |  | 2 | IC50 (HDAC1): 4370 ± 650 nM; IC50 (HDAC6): 220 ± 60 nM |
| O=C(COc1ccc(CNc2cc(C(=O)NO)ccc2Cl)cc1)NCCCOCCOCCOCCCNc1cccc2c1C(=O)N(C1CCC(=O)NC1=O)C2=O (stereo not shown) [CRBN_1h] | 330 ± 190 |  |  | 33.5 | 66.8 |  | IC50 (HDAC1): 3910 ± 480 nM |
| C[C@@H]1C[C@@H]([C@H](O)CC2CC(=O)NC(=O)C2)C(=O)[C@@H](C)C1 [cycloheximide, reference compound] |  |  |  |  |  |  | HDAC8 degradation with de novo protein synthesis inhibited (HDAC8 [2]): no effect |
| COc1ccc(C(=O)NO)cc1NC(=O)c1ccc(CNC(=O)CCCCCCCNC(=O)CC23CC4CC(CC(C4)C2)C3)cc1 [HyT_1o] | 90 ± 10 | 9.8 | 52.6 |  |  | 4 | IC50 (HDAC6; [3]): 370 ± 30 nM |
| COc1ccc(CNc2cc(C(=O)NO)ccc2OC)cc1 [2h] |  |  |  |  |  |  | IC50 (HDAC8 [1]; [4]): 10 ± 1 nM; IC50 (HDAC1; [5]): > 20000 nM; IC50 (HDAC6; [6]): 150 ± 1 nM |
| O=C(COc1ccc(CNc2cc(C(=O)NO)ccc2Cl)cc1)OCc1ccccc1 [2i] |  |  |  |  |  |  | IC50 (HDAC8 [1]; [4]): 410 ± 50 nM; IC50 (HDAC1; [5]): > 20000 nM; IC50 (HDAC6; [6]): 7400 ± 600 nM |
